Reference: ChEMBL document CHEMBL1142215, “Site-specific reduction of oxidative and lipid metabolism in adipose tissue of 3'-azido-3'-deoxythymidine-treated rats” (2007)
Activity calls are given as the source filed them. The calls are words filed in the database; no cut-off is given here.

What was measured:
[1] = test system: Rattus norvegicus; assay: Increase in body weight in lean Wistar rat at 70 mg/kg/day after 4 weeks; assay type: functional
[2] = test system: Rattus norvegicus; assay: Increase in body weight in cafteria-fed Wistar rat at 70 mg/kg/day after 4 weeks; assay type: functional
[3] = test system: Rattus norvegicus; assay: Increase in triglyceride level in lean Wistar rat at 70 mg/kg/day relative to control; assay type: functional
[4] = test system: Rattus norvegicus; assay: Increase in triglyceride level in cafteria-fed Wistar rat at 70 mg/kg/day relative to control; assay type: functional
[5] = test system: Rattus norvegicus; assay: Effect on HDL cholesterol level in lean Wistar rat at 70 mg/kg/day relative to control; assay type: functional
[6] = test system: Rattus norvegicus; assay: Effect on HDL cholesterol level in cafteria-fed Wistar rat at 70 mg/kg/day relative to control; assay type: functional
[7] = test system: Rattus norvegicus; assay: Effect on LDL cholesterol level in lean Wistar rat at 70 mg/kg/day relative to control; assay type: functional
[8] = test system: Rattus norvegicus; assay: Effect on LDL cholesterol level in cafteria-fed Wistar rat at 70 mg/kg/day relative to control; assay type: functional
[9] = test system: Rattus norvegicus; assay: Increase in cellularity in cafteria-fed Wistar rat inguinal tissue assessed as DNA content at 70 mg/kg/day; assay type: functional
[10] = test system: Rattus norvegicus; assay: Decrease in inguinal adipocyte size in cafteria-fed Wistar rat at 70 mg/kg/day; assay type: functional
[11] = test system: Rattus norvegicus; assay: Decrease in epididymal adipocyte size in cafteria-fed Wistar rat at 70 mg/kg/day; assay type: functional, organism-based
[12] = test system: Rattus norvegicus; assay: Decrease in cytochrome c oxidase activity in lean Wistar rat inguinal adipose tissue at 70 mg/kg/day by DNA quantification assay; assay type: organism-based
[13] = test system: Rattus norvegicus; assay: Decrease in cytochrome c oxidase activity in cafteria-fed Wistar rat inguinal adipose tissue at 70 mg/kg/day by DNA quantification assay; assay type: organism-based
[14] = target: Fatty acid synthase (Rattus norvegicus) (UniProt P12785); assay: Decrease in fatty acid synthase activity in lean Wistar rat inguinal adipose tissue assessed at 70 mg/kg/day by DNA quantification assay; assay type: organism-based
Sequence of Fatty acid synthase (Rattus norvegicus) (P12785 whole entry): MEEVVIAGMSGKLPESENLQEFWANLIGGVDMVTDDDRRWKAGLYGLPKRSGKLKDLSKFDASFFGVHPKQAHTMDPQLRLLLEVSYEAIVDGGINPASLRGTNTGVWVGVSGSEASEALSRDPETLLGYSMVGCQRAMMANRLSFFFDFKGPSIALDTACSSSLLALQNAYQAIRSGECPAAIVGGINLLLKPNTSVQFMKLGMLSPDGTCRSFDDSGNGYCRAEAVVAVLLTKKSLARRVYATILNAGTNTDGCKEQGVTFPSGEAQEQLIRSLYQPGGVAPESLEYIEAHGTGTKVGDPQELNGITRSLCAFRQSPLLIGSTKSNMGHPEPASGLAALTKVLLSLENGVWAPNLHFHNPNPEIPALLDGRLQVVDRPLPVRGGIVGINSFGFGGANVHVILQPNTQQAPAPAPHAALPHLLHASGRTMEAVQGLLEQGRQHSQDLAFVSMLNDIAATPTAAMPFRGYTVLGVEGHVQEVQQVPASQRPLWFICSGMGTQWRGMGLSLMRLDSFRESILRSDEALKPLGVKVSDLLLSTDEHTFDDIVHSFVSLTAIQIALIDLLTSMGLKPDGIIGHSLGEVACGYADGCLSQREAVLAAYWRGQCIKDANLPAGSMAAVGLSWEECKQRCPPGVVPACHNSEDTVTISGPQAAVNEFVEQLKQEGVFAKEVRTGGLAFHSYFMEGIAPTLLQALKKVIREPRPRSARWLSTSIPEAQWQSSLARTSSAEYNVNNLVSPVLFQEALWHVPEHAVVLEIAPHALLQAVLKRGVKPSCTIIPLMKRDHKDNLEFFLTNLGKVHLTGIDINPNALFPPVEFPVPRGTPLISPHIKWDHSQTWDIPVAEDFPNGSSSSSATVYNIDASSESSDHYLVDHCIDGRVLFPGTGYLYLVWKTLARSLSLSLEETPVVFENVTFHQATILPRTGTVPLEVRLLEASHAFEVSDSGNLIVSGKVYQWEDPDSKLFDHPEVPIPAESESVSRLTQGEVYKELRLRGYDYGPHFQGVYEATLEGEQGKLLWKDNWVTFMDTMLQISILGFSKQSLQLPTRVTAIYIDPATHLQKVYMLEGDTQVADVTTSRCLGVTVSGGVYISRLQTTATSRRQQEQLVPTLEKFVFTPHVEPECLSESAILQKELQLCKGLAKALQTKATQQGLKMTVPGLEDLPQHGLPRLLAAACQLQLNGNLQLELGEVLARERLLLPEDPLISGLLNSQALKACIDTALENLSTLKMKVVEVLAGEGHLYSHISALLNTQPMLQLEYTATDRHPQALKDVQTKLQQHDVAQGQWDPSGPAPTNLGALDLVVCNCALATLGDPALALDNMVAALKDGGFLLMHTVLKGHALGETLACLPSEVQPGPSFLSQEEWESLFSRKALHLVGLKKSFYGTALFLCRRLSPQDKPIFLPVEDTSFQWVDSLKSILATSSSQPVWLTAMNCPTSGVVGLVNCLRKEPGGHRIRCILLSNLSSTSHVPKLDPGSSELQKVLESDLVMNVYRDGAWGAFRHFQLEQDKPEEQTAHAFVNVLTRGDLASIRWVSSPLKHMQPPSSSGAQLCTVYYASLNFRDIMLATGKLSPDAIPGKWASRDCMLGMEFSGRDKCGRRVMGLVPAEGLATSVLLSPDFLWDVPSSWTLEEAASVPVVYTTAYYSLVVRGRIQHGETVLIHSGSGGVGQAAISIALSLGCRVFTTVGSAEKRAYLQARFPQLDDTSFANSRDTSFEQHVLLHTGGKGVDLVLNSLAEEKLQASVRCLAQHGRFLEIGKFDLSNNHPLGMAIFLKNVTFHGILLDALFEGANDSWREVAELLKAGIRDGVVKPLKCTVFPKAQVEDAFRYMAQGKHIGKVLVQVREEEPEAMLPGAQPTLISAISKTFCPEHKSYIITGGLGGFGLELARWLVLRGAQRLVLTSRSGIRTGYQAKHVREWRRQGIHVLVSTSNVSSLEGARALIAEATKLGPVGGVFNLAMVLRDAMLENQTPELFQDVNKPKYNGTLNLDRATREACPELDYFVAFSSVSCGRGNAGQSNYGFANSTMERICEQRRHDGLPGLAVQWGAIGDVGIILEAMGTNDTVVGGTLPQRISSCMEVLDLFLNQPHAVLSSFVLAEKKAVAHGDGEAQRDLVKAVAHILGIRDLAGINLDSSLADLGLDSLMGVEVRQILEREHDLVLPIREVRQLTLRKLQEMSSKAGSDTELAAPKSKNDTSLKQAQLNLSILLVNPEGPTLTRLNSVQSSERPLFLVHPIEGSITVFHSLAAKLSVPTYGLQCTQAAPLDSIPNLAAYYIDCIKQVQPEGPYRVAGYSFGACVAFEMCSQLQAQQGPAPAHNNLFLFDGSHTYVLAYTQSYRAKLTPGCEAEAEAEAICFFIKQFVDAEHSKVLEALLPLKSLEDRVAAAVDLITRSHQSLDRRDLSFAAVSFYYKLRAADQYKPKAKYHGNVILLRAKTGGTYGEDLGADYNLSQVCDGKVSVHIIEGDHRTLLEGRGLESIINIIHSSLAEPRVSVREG

[15] = target: Fatty acid synthase (Rattus norvegicus) (UniProt P12785); assay: Decrease in fatty acid synthase activity in Wistar cafteria-fed rat inguinal adipose tissue at 70 mg/kg/day by DNA quantification assay; assay type: organism-based
[16] = test system: Rattus norvegicus; assay: Increase in AMPK phosphorylation level in rat inguinal adipose cells at 70 mg/kg/day; assay type: organism-based
[17] = test system: Rattus norvegicus; assay: Effect on AMPK phosphorylation level in rat epididymal adipose cell at 70 mg/kg/day; assay type: organism-based
[18] = target: Fatty acid synthase (Rattus norvegicus) (UniProt P12785); assay: Decrease in fatty acid synthase activity in lean Wistar rat epididymal adipose tissue assessed at 70 mg/kg/day by DNA quantification assay; assay type: organism-based
[19] = target: Fatty acid synthase (Rattus norvegicus) (UniProt P12785); assay: Decrease in fatty acid synthase activity in Wistar cafteria-fed rat epididymal adipose tissue at 70 mg/kg/day by DNA quantification assay; assay type: organism-based

Cc1cn([C@H]2C[C@H](N=[N+]=[N-])[C@@H](CO)O2)c(=O)[nH]c1=O [ZIDOVUDINE]
Activity [1]: 401 g
Activity [2]: 443 g
Activity [3]: 2.11 mM
Activity [4]: 1.96 mM
Activity [5]: 0.43 mM
Activity [6]: 0.32 mM
Activity [7]: 0.27 mM
Activity [8]: 0.6 mM
Activity [9]: 625 µg
Activity [10]: 2082 um2
Activity [11]: inactive
Activity [12]: 6.61 U/mg
Activity [13]: 6.43 U/mg
Activity [14]: 0.72 U/mg
Activity [15]: 0.55 U/mg
Activity [16]: Active
Activity [17]: Active
Activity [18]: inactive
Activity [19]: inactive
